Assay results from patent publication US20220062291A1, “COMPOSITIONS AND METHODS OF TREATING CANCERS BY ADMINISTERING A PHENOTHIAZINE-RELATED DRUG THAT ACTIVATES PROTEIN PHOSPHATASE 2A (PP2A) WITH REDUCED INHIBITORY ACTIVITY TARGETED TO THE DOPAMINE D2 RECEPTOR AND ACCOMPANYING TOXICITY” (DANA-FARBER CANCER INSTITUTE, INC., priority 2018, published 2022).
Read-outs that look alike come from different tables or passages of the source.

Tests used:
[1] = target: T1, PP2A (Homo sapiens, UniProt P30153+P67775+Q16537); test: PP2A phosphatase activity in treated KOPT-K1 cells; type: cell-based; conditions: KOPT-K1, 10 μM for 3 hours
T1 construct: are endogenously expressed by KOPTK1 cells; endogenous in cells; host or cells: KOPT-K1 T-ALL cells / lysates
T1 sequence (P30153 2-589): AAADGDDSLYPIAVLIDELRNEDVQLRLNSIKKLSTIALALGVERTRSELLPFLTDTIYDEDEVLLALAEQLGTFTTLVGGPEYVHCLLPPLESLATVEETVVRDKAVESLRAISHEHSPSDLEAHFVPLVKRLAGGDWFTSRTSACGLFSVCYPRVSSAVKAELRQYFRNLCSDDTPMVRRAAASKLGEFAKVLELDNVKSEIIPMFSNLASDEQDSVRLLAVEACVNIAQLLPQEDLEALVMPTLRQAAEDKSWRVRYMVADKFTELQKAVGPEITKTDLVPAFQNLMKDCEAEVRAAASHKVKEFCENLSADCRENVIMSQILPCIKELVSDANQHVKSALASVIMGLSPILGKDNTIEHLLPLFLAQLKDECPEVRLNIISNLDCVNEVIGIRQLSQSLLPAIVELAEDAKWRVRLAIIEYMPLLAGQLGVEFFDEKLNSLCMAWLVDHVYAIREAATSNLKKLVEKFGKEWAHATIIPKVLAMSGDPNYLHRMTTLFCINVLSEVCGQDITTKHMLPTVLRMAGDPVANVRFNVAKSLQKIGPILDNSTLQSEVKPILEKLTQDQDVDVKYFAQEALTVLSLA
T1 sequence (P67775 whole entry): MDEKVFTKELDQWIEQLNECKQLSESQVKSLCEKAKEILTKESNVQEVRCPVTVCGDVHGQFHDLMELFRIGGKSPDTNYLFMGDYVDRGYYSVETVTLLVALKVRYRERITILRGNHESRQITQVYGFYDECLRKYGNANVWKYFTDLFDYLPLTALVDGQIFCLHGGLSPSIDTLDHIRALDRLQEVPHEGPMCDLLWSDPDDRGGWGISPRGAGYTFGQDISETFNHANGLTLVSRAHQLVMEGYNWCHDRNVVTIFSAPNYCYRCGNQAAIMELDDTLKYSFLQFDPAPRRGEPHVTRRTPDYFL
T1 sequence (Q16537 2-467): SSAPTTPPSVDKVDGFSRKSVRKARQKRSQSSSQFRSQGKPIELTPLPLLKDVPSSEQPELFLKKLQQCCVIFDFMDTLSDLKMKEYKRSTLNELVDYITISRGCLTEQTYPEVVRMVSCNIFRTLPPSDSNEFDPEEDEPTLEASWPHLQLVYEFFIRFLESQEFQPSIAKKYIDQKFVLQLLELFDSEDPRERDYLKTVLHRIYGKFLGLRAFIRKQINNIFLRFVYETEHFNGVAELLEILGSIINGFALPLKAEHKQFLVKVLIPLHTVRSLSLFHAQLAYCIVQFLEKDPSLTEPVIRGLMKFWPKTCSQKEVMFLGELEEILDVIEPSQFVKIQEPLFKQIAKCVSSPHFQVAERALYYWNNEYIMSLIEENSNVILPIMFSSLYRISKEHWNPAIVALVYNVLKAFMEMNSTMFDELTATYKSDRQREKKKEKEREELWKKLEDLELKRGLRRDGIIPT
Procedure: (§1) Data are presented as means±s.d. (n=3, biological replicates). KO; knock out. **P<0.01, ***P<0.001 by student's t-test.
(§2) For IC50 calculation, KOPT-K1 cells were treated with each of the compounds at various concentrations for 72 hours, followed by the determination of viable cell numbers with PrestoBlue® cell viability reagent. For the PP2A phosphatase activity assay, KOPT-K1 cells were treated with each of the compounds at 10 μM for 3 hours before phosphatase activity was measured. Dopamine D2 receptor activity was monitored in HEK293T cells coexpressing the dopamine D2 receptor, modified G protein and SRE luciferase reporter. Cells were treated with each of the compound at 10 μM for 3 hours, then lysed for the luciferase reporter assay.
(§3) For IC50 calculations, KOPT-K1 cells were treated with each of the compound at various concentrations for 72 hours, then their viability was examined by PrestoBlue® Cell Viability Reagent (Thermo Fisher Scientific). […] DRD2 activity was monitored in HEK293T cells expressing DRD2, modified G protein and SRE luciferase reporter. Cells were treated with each of the compounds at 10 μM for three hours, then lysed for luciferase reporter assay. […] The biochemical assays were performed as indicated in Examples 7 and 8.

[2] = system: PP2A; test: PP2A phosphatase activity in treated KOPT-K1 cells; type: cell-based, human; conditions: KOPT-K1 cells, 10 μM
Procedure: as §1, §2, §3

[3] = system: KOPT-K1 cells; test: Cell cycle status by PI flow cytometry; type: cell-based, human; conditions: 10 μM and 20 μM, 24 hours
Procedure: Relative DNA content of cells in each of the samples was determined by measuring PI (propidium iodide) staining using flow cytometry. The results are illustrated in FIG. 31A-FIG. 31B.
Relative DNA content of cells in each of the samples was determined as described above.

[4] = system: PP2A subunits; test: Co-immunoprecipitation of PP2A subunits (holoenzyme assembly); parameters: species or system human; conditions: KOPT-K1 cells, 10 μM, 24 hours
Text: The biochemical activity of iPAP1 was further characterized by addressing whether it acts exclusively on the three identified subunits to mediate the assembly of PP2A, or whether other proteins expressed by T-ALL cells are also required. Using baculovirus vectors, each subunit of PP2A was first expressed with a C-terminal tag in Hi5 insect cells, and then purified the subunit proteins using columns with antibodies against the tags bound to agarose beads (see, Example 5, FIG. 13-FIG. 14). […] PP2A is a unique enzyme consisting of three subunits and it needs to be properly assembled into a holoenzyme before it mediates phosphatase activity. […] The protein lysates were then immunoprecipitated with anti-PPP2CA antibody or normal IgG as a control, and the precipitates were immunoblotted with antibodies specifically detecting each of the PP2A subunits. […] Nuclear and cytoplasmic fractions were separated using NE-PER™ Nuclear and Cytoplasmic Extraction Kit (Thermo Fisher Scientific), and each of the subunits of PP2A was analyzed by western blot. Histone H3 and α tubulin expression levels were used as loading controls for nuclear and cytoplasmic fractions, respectively. […] Lysates were immunoprecipitated using an anti-PPP2CA antibody, and then blotted with antibodies specific for each PP2A subunit. […] The results of a co-immunoprecipitation assay using an anti-PPP2CA antibody for immunoprecipitation in KOPT-K1 cells treated with SMAP at 10 μM or control DMSO for 24 hours before they were lysed for protein extraction are illustrated in FIG. 9B. Lysates were immunoprecipitated using an anti-PPP2CA antibody, and then blotted with antibodies specific for each PP2A subunit.

[5] = system: KOPT-K1 cells with PP2A subunit inactivation; test: Drug sensitivity of KOPT-K1 sublines with CRISPR-Cas9 PP2A subunit knockout; type: cell-based, human; conditions: SMAP 5 μM, 72 hours
Procedure: Two gRNAs with different target sequences were designed for each subunit (#1 and #2). Control gRNAs target luciferase gene. […] Data are presented as means±s.d. (n=3-5, biological replicates). ***P<0.001 by Student's t-test (FIG. 3A).
SMAP sensitivity in KOPT-K1 cells was measured after PP2A subunit inactivation. Only each subunit of PP2A was knocked out by CRISPR-Cas9 with unique gRNAs. […] Two gRNAs with different target sequences were designed for each subunit (#1 and #2). Control gRNAs target luciferase gene. Data are presented as means±s.d. (n=3-5, biological replicates). ***P<0.001 by Student's t-test (FIG. 3B).
To identify the subunits of PP2A that are essential for the antitumor activity of iPAP1, CRISPR-Cas9 was used to establish a series of sublines of KOPT-K1 T-ALL cells, each lacking one of the 19 specific PP2A subunits (FIG.1A-FIG. 2), and to examine their sensitivity to iPAP1-induced growth inhibition.
With this panel of PP2A subunit knockout cells in hand, we analyzed the PP2A subunits required for growth suppression by SMAPs, another class of allosteric activators of PP2A (Gutierrez et al., J. Clin. Invest. 124:644-655 (2014); Sangodkar et al., J. Clin. Invest. 127:2081-2090 (2017)). […] Both the PPP2R5E and PPP2R2A regulatory subunits of PP2A were among the most highly expressed in a series of 16 different T-ALL cell lines (FIG. 5A). Thus, the assembly of structurally different heterotrimeric PP2A complexes induced with either iPAP1 or SMAP cannot be attributed to imbalances in cellular expression levels of individual PP2A subunits, but likely stems from differences in the allosteric alterations of the A subunit protein resulting from the binding of these two classes of small molecules, which have different chemical structures.

[6] = target: T2, human dopamine receptor D2 (DRD2) (Homo sapiens, UniProt P14416); test: Dopamine receptor D2 inhibition assay (SRE-luciferase reporter in HEK293T cells); type: cell-based; conditions: for inhibition of DRD2 signaling: 10 μM for 3 hours
T2 construct: expressed in transfected cells; host or cells: HEK293T (pcDNA3 vectors)
T2 sequence (P14416 whole entry): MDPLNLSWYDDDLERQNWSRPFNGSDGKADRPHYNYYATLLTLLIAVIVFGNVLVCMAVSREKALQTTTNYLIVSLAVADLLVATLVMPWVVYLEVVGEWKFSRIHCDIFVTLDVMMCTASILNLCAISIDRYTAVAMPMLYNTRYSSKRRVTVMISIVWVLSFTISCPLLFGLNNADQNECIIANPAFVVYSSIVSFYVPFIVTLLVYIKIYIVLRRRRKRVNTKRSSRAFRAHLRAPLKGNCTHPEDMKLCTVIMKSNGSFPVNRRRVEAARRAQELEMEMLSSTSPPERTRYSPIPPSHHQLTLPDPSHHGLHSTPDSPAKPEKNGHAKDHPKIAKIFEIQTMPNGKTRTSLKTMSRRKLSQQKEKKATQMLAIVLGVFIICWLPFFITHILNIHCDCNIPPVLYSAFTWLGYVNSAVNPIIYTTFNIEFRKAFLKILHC
Text: (§4) The human dopamine receptor D2 (DRD2) and modified murine Gq5i cDNAs were inserted into pcDNA3 expression vectors. After verifying the PCR products by DNA sequencing, DRD2, Gq5i and the PathDetect pSRE-Luc Cis-Reporter Plasmid (#219080, Agilent Technologies) were transfected to HEK293T cells. As previously reported, Gq5i enables Gi/o-coupled receptor activity to be detected using a serum response element (SRE)-luciferase reporter gene (See, Conklin et al., Nature 363(6426):274-6 (1993); Al-Fulaij et al., J. Pharmacol. Exp. Ther. 321(1):298-307 (2007)). These cells were starved in FCS-free DMEM medium for six hours before incubating them with 2 μM dopamine hydrochloride (Sigma Aldrich) together with each of the compound at 0, 0.5, 1, 2 and 4 μM for three hours. The reporter activity was measured using Pierce™ Firefly Luciferase Glow Assay Kit (Thermo Fisher Scientific).
as §2
as §4, with “D2” for “D2 (DRD2)”, “363(6426):274-276” for “363(6426):274-6”, “0.5” for “0, 0.5, 1, 2 and 4”

[7] = system: KOPT-K1 cells; test: KOPT-K1 cell viability (PrestoBlue), IC50 after 72 hours; type: cell-based, human; conditions: for IC50: 72 hours, PrestoBlue, read-out: IC50 value against KOPT-K1 cells
Procedure: as §2
For IC50 calculations, KOPT-K1 cells were treated with each of the compound at various concentrations for 72 hours, then their viability was examined by PrestoBlue® Cell Viability Reagent (Thermo Fisher Scientific). For PP2A phosphatase activity assay, KOPT-K1 cells were treated with each of the compound at 10 μM for three hours before the activity of PP2A was quantified using PP2A Immunoprecipitation Phosphatase Assay Kit (Merck Millipore®). DRD2 activity was monitored in HEK293T cells expressing DRD2, modified G protein and SRE luciferase reporter. Cells were treated with each of the compounds at 10 μM for three hours, then lysed for luciferase reporter assay. […] The biochemical assays were performed as indicated in Examples 7 and 8.

[8] = target: tubulin from porcine brain (Sus scrofa, UniProt P02550+P02554); test: Fluorescence-based tubulin polymerization assay; conditions: 3 μM
Chain of tubulin from porcine brain (P02550 whole entry): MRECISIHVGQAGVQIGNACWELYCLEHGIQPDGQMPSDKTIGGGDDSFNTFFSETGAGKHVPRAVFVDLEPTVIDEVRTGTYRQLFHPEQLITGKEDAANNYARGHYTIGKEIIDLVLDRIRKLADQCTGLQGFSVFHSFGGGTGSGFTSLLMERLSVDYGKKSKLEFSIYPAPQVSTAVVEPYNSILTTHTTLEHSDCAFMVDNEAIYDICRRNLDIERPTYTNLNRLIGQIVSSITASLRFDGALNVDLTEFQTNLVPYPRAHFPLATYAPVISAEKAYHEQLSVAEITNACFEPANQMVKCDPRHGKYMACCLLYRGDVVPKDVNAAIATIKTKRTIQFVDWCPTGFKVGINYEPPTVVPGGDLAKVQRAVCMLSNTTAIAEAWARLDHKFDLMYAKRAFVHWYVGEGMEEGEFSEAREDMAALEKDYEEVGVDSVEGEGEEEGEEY
Chain of tubulin from porcine brain (P02554 whole entry): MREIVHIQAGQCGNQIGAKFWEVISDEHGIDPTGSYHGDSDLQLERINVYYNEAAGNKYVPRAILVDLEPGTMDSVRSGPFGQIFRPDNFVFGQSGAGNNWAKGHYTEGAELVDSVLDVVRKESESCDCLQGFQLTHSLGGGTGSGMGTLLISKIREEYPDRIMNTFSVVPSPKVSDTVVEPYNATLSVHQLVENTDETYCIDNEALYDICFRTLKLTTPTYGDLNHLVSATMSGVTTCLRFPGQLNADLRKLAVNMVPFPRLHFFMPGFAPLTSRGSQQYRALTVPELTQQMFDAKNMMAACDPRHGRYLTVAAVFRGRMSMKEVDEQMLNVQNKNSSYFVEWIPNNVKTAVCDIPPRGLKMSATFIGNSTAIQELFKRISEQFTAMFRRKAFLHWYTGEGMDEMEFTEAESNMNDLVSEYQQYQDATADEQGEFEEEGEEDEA
Procedure: Briefly, free tubulin (2 mg/mL) in buffer supplemented with 1 mM GTP and 15% glycerol was employed. Then, the test compounds were added to tubulin solution and changes in the fluorescence intensity (ex=370 nm, em=445 nm) were measured by kinetic reading at 37° C. using SpectraMax® M5 Microplate reader (Molecular Devices LLC).

[9] = system: KOPT-K1 cells; test: Microtubule and chromatin staining of cytospins; type: cell-based, human; conditions: 0.001 and 0.0001 μM, 24 hours
[10] = 0.5 μM for three hours with 2 μM dopamine

For `O=S(=O)(N[C@@H]1CCC[C@H](N2c3ccccc3Oc3ccccc32)[C@H]1O)c1ccc(OC(F)(F)F)cc1` [SMAP, reference compound], the PP2A activation potential [1] was “much less potent than iPAP1, iPAP2, iPAP3 or iPAP4 in phosphatase activity”, the “phosphatase activity of PP2A relative to basal level” value [2] was “up to twice its basal level” and the cell cycle status [3] was “arrested in G0/G1 phase”. For the same compound, the “PP2A subunits co-immunoprecipitated with anti-PPP2CA antibody” value [4] was “trimeric complex nucleated by SMAP contains PPP2CA, PPP2R1A and PPP2R2A”, the “PP2A subunits whose knockout gives resistance” value [5] was “resistant to SMAP treatment only when the PPP2R1A, PPP2CA or PPP2R2A subunit was disrupted” and the “inhibitory activities on DRD2” value [6, 10] was “did not show inhibitory activities on DRD2”. The “inhibition of DRD2 signaling” value [6] was “lacked DRD2 inhibitory activity” and the IC50 [7] was roughly 5000 nM.

For `O=c1[nH]c2ccccc2n1CCCN1CCC(n2c(=O)[nH]c3cc(Cl)ccc32)CC1` [domperidone, reference compound], the “inhibition of DRD2 signaling” value [6] was “strong inhibitors”.

In the case of `C=C[C@@]1(C)CC(=O)[C@]2(O)[C@@]3(C)[C@@H](O)CCC(C)(C)[C@@H]3[C@H](O)[C@H](OC(C)=O)[C@@]2(C)O1` [forskolin, reference compound], the inhibition at 0.5 µM ([6]; HEK-293T, 0.5 μM for three hours with 2 μM dopamine) is reported as roughly 30%.

`COc1ccc(C(=O)N2c3ccccc3Sc3ccc([N+](=O)[O-])cc32)cc1` [iPAP2] showed an IC50 ([7]; Homo sapiens, KOPTK1, 72 h) of roughly 1000 nM.

`COc1ccc(C(=O)N2c3ccccc3Sc3ccc(C#N)cc32)cc1` [iPAP3] showed an IC50 ([7]; Homo sapiens, KOPTK1, 72 h) of roughly 300 nM.

In the case of `COc1ccc(C(=O)N2c3ccccc3Sc3cc(C#N)ccc32)cc1` [iPAP4], the PP2A activation potential [1] is reported as “relatively high PP2A activation potential compared to PPZ”, the “inhibition of DRD2 signaling” value [6] is reported as “very low inhibition of DRD2 signaling” and the IC50 [7] is reported as 30 to 40 nM. The IC50 ([7]; Homo sapiens, KOPTK1, 72 h) was roughly 30 nM, the “IC50 lower than PPZ” value ([7]; KOPT-K1, 72 hours) was roughly 100 fold and the “IC50 lower than iPAP1” value ([7]; KOPT-K1, 72 hours) was roughly 10 fold.

`Cc1ccccc1C(=O)N1c2ccccc2Sc2ccc(Cl)cc21` [iPAP5] was tested, and the “inhibitory activities on DRD2” value [6, 10] was “did not show inhibitory activities on DRD2”.

`CCN1CCCC1CNC(=O)c1cc(S(N)(=O)=O)ccc1OC` (stereo not shown) [sulpiride, reference compound] was tested, and the “inhibition of DRD2 signaling” value [6] was “strong inhibitors”.

In the case of `CC[C@]1(O)C[C@H]2CN(CCc3c([nH]c4ccccc34)[C@@](C(=O)OC)(c3cc4c(cc3OC)N(C=O)[C@H]3[C@@](O)(C(=O)OC)[C@H](OC(C)=O)[C@]5(CC)C=CCN6CC[C@]43[C@@H]65)C2)C1` [vincristine, reference compound], the “inhibition of tubulin polymerization” value [8] is reported as “markedly inhibited tubulin polymerization” and the “mitotic and microtubule phenotype” value [9] is reported as “without detectable microtubules”.
